Data published in the NIST ThermoML archive (doi:10.1021/je2011314).
± gives the expanded uncertainty stated by the source. Values belong to the compound of their own block, whether it stands above or below them.

Key:
[1] = 298.15 K; 101.33 kPa; Liquid; Vibrating tube method
[2] = xn = mol fraction of the nth substance listed; settings: 298.15 K, 101 kPa, Liquid, Vibrating tube method

mass density [1]: 785.31 ± 0.62 kg/m3
SMILES: CCO [ethanol]

mass density [1]: 786.56 ± 0.61 kg/m3
SMILES: CO [methanol]

mass density [1]: 799.7 ± 0.62 kg/m3
SMILES: CCCO [propan-1-ol]

Further lines, the compound ahead of its results:

SMILES: CC(C)CC(C)(C)C [2,2,4-trimethylpentane]
mass density [1]: 687.62 ± 0.62 kg/m3

SMILES: COC(C)(C)C [2-methoxy-2-methylpropane]
mass density [1]: 735.21 ± 0.62 kg/m3

SMILES: COC(C)(C)C [2-methoxy-2-methylpropane] + CC(C)CC(C)(C)C
mass density ([2]; x2 = 0.2997): 716 ± 0.17 kg/m3 | mass density ([2]; x2 = 0.3004): 715.84 ± 0.17 kg/m3 | mass density ([2]; x2 = 0.3012): 715.86 ± 0.17 kg/m3 | mass density ([2]; x2 = 0.5018): 705.83 ± 0.18 kg/m3 | mass density ([2]; x2 = 0.5019): 705.9 ± 0.18 kg/m3 | mass density ([2]; x2 = 0.5037): 705.72 ± 0.18 kg/m3 | mass density ([2]; x2 = 0.6707): 698.67 ± 0.18 kg/m3 | mass density ([2]; x2 = 0.7056): 697.4 ± 0.18 kg/m3 | mass density ([2]; x2 = 0.7134): 697.17 ± 0.18 kg/m3

SMILES: CC(C)OC(C)C [diisopropyl ether]
mass density [1]: 718.24 ± 0.64 kg/m3

SMILES: CC(C)OC(C)C [diisopropyl ether] + CC(C)CC(C)(C)C
mass density ([2]; x2 = 0.3056): 706.86 ± 0.22 kg/m3 | mass density ([2]; x2 = 0.3066): 706.7 ± 0.22 kg/m3 | mass density ([2]; x2 = 0.5009): 700.59 ± 0.21 kg/m3 | mass density ([2]; x2 = 0.5027): 700.42 ± 0.21 kg/m3 | mass density ([2]; x2 = 0.5046): 700.41 ± 0.21 kg/m3 | mass density ([2]; x2 = 0.7004): 694.83 ± 0.19 kg/m3 | mass density ([2]; x2 = 0.7009): 694.86 ± 0.19 kg/m3 | mass density ([2]; x2 = 0.7025): 694.86 ± 0.19 kg/m3
